# Counter-ions that a name gives are not always drawn.
# Tests used:
# c-Abl = test: Nuclear and cytosolic c-Abl in HeLa/vector and HeLa/MUC1 cells after genotoxic agents (subcellular fractionation, immunoblot); assay type: cell-based, human; settings: 1 μM ADR, 2 hours
# From the text: (§1) Cell culture. Human HeLa cervical cancer cells, HCT116/vector (HCT116 colorectal carcinoma cells stably transfected with an empty vector), HCT116/MUC1 (HCT116 colorectal carcinoma cells stably transfected with an expression vector encoding a MUC1 polypeptide), HCT116/MUC1(Y46F) (HCT116 colorectal carcinoma cells stably transfected with an expression vector encoding a mutant MUC1 polypeptide containing an amino acid substitution at position 46 changing a tyrosine (Y) to phenylalanine (F)) colon cancer cells (Ren et al., (2002) J. Biol. Chem. 277: 17616-17622) and 293 cells were cultured in Dulbecco's modified medium with 10% heat-inactivated fetal bovine serum, 100 units/ml penicillin, 100 μg/ml streptomycin and 2 mM L-glutamine. Human ZR-75-1/vector (ZR-75-1 breast cancer cells stably transfected with an empty vector) and ZR-75-1/MUC1siRNA (ZR-75-1 breast cancer cells stably transfected with an expression vector encoding an siRNA specific for MUC1) breast cancer cells (Ren et al., (2004) Cancer Cell 5:163-175) were grown in RPMI1640 medium containing 10% heat-inactivated fetal bovine serum and antibiotics. Cells were treated with 1 μM adriamycin (ADR; Calbiochem), 100 μM cisplatin (CDDP; Sigma) or 10 μM STI571 (Gleevec; Novartis, Basel, Switzerland).
# Subcellular fractionation. Nuclear fractions were prepared as described (Kharbanda et al., (1996) Cancer Res. 56:3617-3621). Cytosolic fractions were prepared as described (Hill et al., (2004) EMBO J. 23:2134-2145). Cell membrane fractions were prepared with the Plasma Membrane Extraction Kit (BioVision Research Products, Mountain View, Calif.). Mitochondria were purified as described (Ren et al., (2004) Cancer Cell 5:163-175; Ren et al., (2006) Oncogene 25:20-31).
# Immunoprecipitations and immunoblot analysis. Cell lysates were prepared as described (Kharbanda et al., (1995) Nature 376:785-788); Yoshida et al., (2005) Nat. Cell Biol. 7:278-285). Soluble proteins were incubated with anti-MUC1-N (Kufe et al., (1984) Hybridoma 3:223-232), anti-MUC1-C (Ab5; Neomarker, Montreal, Quebec), anti-Flag (Sigma, St. Louis, Mo.), anti-c-Abl (Ab3; Oncogene, San Diego, Calif.) or anti-14-3-3 (Abcam Inc., Cambridge, Mass.) antibodies for 2 hours at 4° C., followed by precipitation with protein G-Sepharose beads for 1 hour. […] Intensity of the signals was determined by densitometric scanning. Statistical significance was determined by the Student's t-test.
# GFP-c-Abl = test: Nuclear targeting of GFP-c-Abl in transiently transfected 293 cells; assay type: cell-based, human
# From the text: as §1
# Cell transfections. […]
# HCT116 cells = test: Assessment of apoptosis (sub-G1 DNA, propidium iodide, FACScan); assay type: cell-based, human; settings: 10 μM STI571 with CDDP, 12 h
# [1] = system: MUC1-CD (purified MUC1 cytoplasmic domain, thrombin-cleaved from GST-MUC1-CD)
# [2] = system: MUC1 (mucin 1), wild-type, expressed in cells as heterodimer of MUC1-N and MUC1-C
# [3] = system: MUC1(Y60F), MUC1 with tyrosine 60 of the cytoplasmic domain changed to phenylalanine
molecule,measurement,setting,value
"COc1cccc2c1C(=O)c1c(O)c3c(c(O)c1C2=O)C[C@@](O)(C(=O)CO)C[C@@H]3O[C@H]1C[C@H](N)[C@H](O)[C@H](C)O1 [ADR, adriamycin]",nuclear targeting of c-Abl,c-Abl; HeLa/MUC1 cells,little to no nuclear targeting of c-Abl
same,nuclear targeting of c-Abl,c-Abl; HeLa/vector cells,targeting of c-Abl to the nucleus
same,ADR-induced nuclear targeting of c-Abl,"GFP-c-Abl; GFP-c-Abl with coexpressed MUC1, 2 hours",attenuated by coexpression of MUC1
same,nuclear targeting of GFP-tagged c-Abl,"GFP-c-Abl; GFP-c-Abl without MUC1, ADR, 2 hours",increased by ADR treatment
"Cc1ccc(NC(=O)c2ccc(CN3CCN(C)CC3)cc2)cc1Nc1nccc(-c2cccnc2)n1 [STI751, imatinib mesylate]",effect on CDDP-induced apoptosis (sub-G1 DNA),HCT116 cells; HCT116/MUC1(Y60F) cells,significantly attenuated
same,effect on CDDP-induced apoptosis (sub-G1 DNA),HCT116 cells; HCT116/MUC1 cells,no significant effect
same,effect on CDDP-induced apoptosis (sub-G1 DNA),HCT116 cells; HCT116/vector cells,significantly attenuated
GST-c-Abl (glutathione-S-transferase fused in frame with a wild-type c-Abl polypeptide),"phosphorylation of MUC1-CD(Y60F) (in vitro kinase assay, 32P-ATP, SDS-PAGE and autoradiography)",MUC1-CD(Y60F),c-Abl phosphorylation was substantially decreased with the MUC1-CD(Y60F) mutant
same,"phosphorylation of MUC1-CD (in vitro kinase assay, 32P-ATP, SDS-PAGE and autoradiography)",[1],Analysis of the reaction products by SDS-PAGE and autoradiography showed phosphorylation of MUC1-CD
"GST-c-Abl(K-R) (GST fused to a kinase defective mutant c-Abl, lysine to arginine in the active site)","phosphorylation of MUC1-CD (in vitro kinase assay, 32P-ATP, SDS-PAGE and autoradiography)",[1],There was no detectable phosphorylation when MUC1-CD was incubated with a purified kinase-inactive c-Abl(K-R)
"c-Abl (nonreceptor c-Abl tyrosine kinase), endogenous in human cell lines","c-Abl Thr-735 phosphorylation (anti-c-Abl precipitates, immunoblot anti-phospho-c-Abl-Thr-735)",[2],c-Abl Thr-735 phosphorylation was attenuated by expression of MUC1
same,"c-Abl Thr-735 phosphorylation (anti-c-Abl precipitates, immunoblot anti-phospho-c-Abl-Thr-735)",[3],"c-Abl Thr-735 phosphorylation was attenuated by expression of MUC1, but not MUC1(Y60F), in HCT116 cells"

# Source: patent publication US20080107661A1, “MUC1 and ABL” (Dana-Farber Cancer Institute, Inc., priority 2006, published 2008)
